For eleven compounds, IC50 results are on record in patent US9328099B2, “Cyanomethylpyrazole carboxamides as janus kinase inhibitors” (Merck Sharp & Dohme Corp., priority 2011, dated 2016).

Assay [1] has as its target JAK1 (Homo sapiens (Human), UniProt P23458). Nature of the assay: Jak Biochemical HTRF Assay, JAK1. The following applies: HTRF biochemical assay, GST-tagged catalytic domain; top concentration tested […]; read-out: JAK1 IC50. From the text: (§1) Jak Biochemical HTRF Assay Protocol
(§2) Subsequent reagent additions employed an Agilent Bravo.

The target in assay [2] is JAK2 (Homo sapiens (Human), UniProt O60674). Nature of the assay: Jak Biochemical HTRF Assay, JAK2. The following applies: HTRF biochemical assay, GST-tagged catalytic domain; top concentration tested […].
Sequence of JAK2 (O60674 849-1124): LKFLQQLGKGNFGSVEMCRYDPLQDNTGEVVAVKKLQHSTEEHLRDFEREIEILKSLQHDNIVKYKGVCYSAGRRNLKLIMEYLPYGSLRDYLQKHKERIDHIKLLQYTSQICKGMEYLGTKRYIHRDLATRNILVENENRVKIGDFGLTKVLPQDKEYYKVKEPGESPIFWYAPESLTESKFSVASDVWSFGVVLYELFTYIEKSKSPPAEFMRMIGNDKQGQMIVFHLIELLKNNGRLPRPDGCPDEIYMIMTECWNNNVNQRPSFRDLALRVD
Source text: as §1, §2

pIC50: −log10 of the molar value.

Sequence of JAK1 (P23458 875-1153): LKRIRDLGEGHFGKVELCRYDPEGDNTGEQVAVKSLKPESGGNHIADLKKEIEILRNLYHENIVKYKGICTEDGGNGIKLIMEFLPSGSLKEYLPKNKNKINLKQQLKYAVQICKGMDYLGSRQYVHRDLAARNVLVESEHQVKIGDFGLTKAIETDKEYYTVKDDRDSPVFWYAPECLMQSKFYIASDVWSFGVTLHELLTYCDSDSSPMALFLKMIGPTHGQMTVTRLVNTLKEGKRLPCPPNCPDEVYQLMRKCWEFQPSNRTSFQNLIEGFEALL

On to `Cn1cc(-c2cncc(Nc3nn(C4(CC#N)CCN(C(=O)OCC(F)(F)F)CC4)cc3C(N)=O)c2)cn1` [Example 10-6, 2,2,2-trifluoroethyl 4-(4-carbamoyl-3-(5-(1-methyl-1H-pyrazol-4-yl)pyridinl-3-ylamino)-1H-pyrazol-1-yl)-4-(cyanomethyl)piperidine-1-carboxylate], for which the negative logarithm of the IC50 (pIC50) in assay [1] was 9.10; in assay [2] it was 7.15.
For the compound `N#CCC1(n2cc(C(N)=O)c(Nc3ccc(F)cc3)n2)CCC(Nc2cccnc2)CC1` (stereo not drawn) [Example 40-75, Cis or trans 1-[1-(cyanomethyl)-4-(pyridin-3-ylamino)cyclohexyl]-3-[(4-fluorophenyl)amino]-1H-pyrazole-4-carboxamide], the results for the pIC50 in assay [1] and in assay [2] were 9.70 and 8.15, respectively.
As to `N#CCC1(n2cc(C(N)=O)c(Nc3ccc(F)cc3)n2)CCN(c2ccncc2)CC1` [Example 3-46, 1-[4-(cyanomethyl)-1-pyridin-4-ylpiperidin-4-yl]-3-[(4-fluorophenyl)amino]-1H-pyrazole-4-carboxamide], the pIC50 in assay [1] is 8.52; in assay [2], 7.11.
The like results for `N#CCC1(n2cc(C(N)=O)c(Nc3ccnc(F)c3)n2)CCC(NCc2ccccc2F)CC1` (stereo not drawn) [Example 41-11, Cis or trans 1-{1-(cyanomethyl)-4-[(2-fluorobenzyl)amino]cyclohexyl}-3-[(2-fluoropyridin-4-yl)amino]-1H-pyrazole-4-carboxamide] were, in that order, 10.10 and 8.70.
The like results for `CC(C)(C)OC(=O)N1CCC(CC#N)(n2cc(C(N)=O)c(Nc3ccc(C(=O)N4CCS(=O)(=O)CC4)cc3)n2)CC1` [Example 2-6, tert-butyl 4-[4-carbamoyl-3-({4-[(1,1-dioxidothiomorpholin-4-yl)carbonyl]phenyl}amino)-1H-pyrazol-1-yl]-4-(cyanomethyl)piperidine-1-carboxylate] were, in that order, 9.30 and 9.00.
For `N#CCC1(n2cc(C(N)=O)c(Nc3ccccc3)n2)CCN(C(=O)OCc2ccncc2)CC1` [Example 30-40, pyridin-4-ylmethyl 4-[4-carbamoyl-3-(phenylamino)-1H-pyrazol-1-yl]-4-(cyanomethyl)piperidine-1-carboxylate], the figures for the negative logarithm of the IC50 (pIC50) in assay [1] and in assay [2] were 8.70 and 7.24, respectively.
The like results for `N#CCC1(n2cc(C(N)=O)c(Nc3ccccc3)n2)CN(C(=O)OCCCc2cccnc2)C1` [Example 30-68, 3-pyridin-3-ylpropyl 3-[4-carbamoyl-3-(phenylamino)-1H-pyrazol-1-yl]-3-(cyanomethyl)azetidine-1-carboxylate] were, in that order, 7.35 and 6.35.
The like results for `N#CCC1(n2cc(C(N)=O)c(Nc3ccc(S(=O)(=O)C(F)F)cc3)n2)CCC(NC2CCOCC2)CC1` (stereo not drawn) [Example 40-26, Cis or trans 1-[1-(cyanomethyl)-4-(tetrahydro-2H-pyran-4-ylamino)cyclohexyl]-3-({4-[(difluoromethyl)sulfonyl]phenyl}amino)-1H-pyrazole-4-carboxamide] were, in that order, 10.10 and 8.30.
The like results for `CC(C)(O)CC(=O)N1CCC(CC#N)(n2cc(C(N)=O)c(Nc3ccnc(F)c3)n2)CC1` [Example 34-50, 1-[4-(cyanomethyl)-1-(3-hydroxy-3-methylbutanoyl)piperidin-4-yl]-3-[(2-fluoropyridin-4-yl)amino]-1H pyrazole-4-carboxamide] were, in that order, 9.70 and 8.10.
Regarding `COc1cc(N2CCC(CC#N)(n3cc(C(N)=O)c(Nc4ccc(F)cc4)n3)CC2)ccc1F` [Example 3-11, 1-[4-(cyanomethyl)-1-(4-fluoro-3-methoxyphenyl)piperidin-4-yl]-3-[(4-fluorophenyl)amino]-1H-pyrazole-4-carboxamide], the pIC50 in assay [1] was 8.40; in assay [2], 7.13.
The like results for `COc1cc(N2CCC(CC#N)(n3cc(C(N)=O)c(Nc4ccc(F)cc4)n3)CC2)ccn1` [Example 3-6, 1-[4-(cyanomethyl)-1-(2-methoxypyridin-4-yl)piperidin-4-yl]-3-[(4-fluorophenyl)amino]-1H-pyrazole-4-carboxamide] were, in that order, 9.70 and 8.30.
